For 14 molecules, TGI results are on record in PubChem BioAssay (NCI).

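Values below derive from 48-hour exposures of cells grown in 96-well plates, with endpoints linearly interpolated between the two concentrations bracketing the appropriate inhibition level. TGI denotes the concentration required for complete inhibition of growth.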

Among the test systems are RXF 393 renal; HCT-15 colon; SK-MEL-28 melanoma; SK-OV-3 ovarian; MALME-3M melanoma; MDA-MB-435; OVCAR-3 ovarian; 786-0 renal; CCRF-CEM leukemia; BT-549 breast.
What all share (experiment): NCI anticancer screen, dose series, 48 h

On to `O=C(CCc1ccccc1)NCCc1ccc(O)c(O)c1`, for which the TGI in the test on RXF 393 renal was above 100 µM; in the test on HCT-15 colon it was above 100 µM; with SK-MEL-28 melanoma, above 100 µM; with SK-OV-3 ovarian it was above 100 µM; in the test on MALME-3M melanoma, above 100 µM; with MDA-MB-435, 29.4 µM. In addition, the TGI in the test with OVCAR-3 ovarian was above 89 µM; in the test with 786-0 renal, above 82.2 µM; in the test with CCRF-CEM leukemia it was 27.1 µM; with BT-549 breast, above 49.8 µM.

Regarding `N#Cc1c(N)n(-c2nc3ccccc3s2)c(=O)c2cc([N+](=O)[O-])ccc12`, the TGI in the test on RXF 393 renal was 41.9 µM; with HCT-15 colon, 19.4 µM; in the test on SK-MEL-28 melanoma, above 100 µM; with SK-OV-3 ovarian, 98.1 µM; with MALME-3M melanoma, 36.7 µM; in the test with MDA-MB-435 it was above 69.1 µM. Moreover, the TGI in the test with OVCAR-3 ovarian was 51.9 µM; in the test with 786-0 renal it was above 66.3 µM; in the test on CCRF-CEM leukemia it was 18.9 µM; with BT-549 breast, above 62.7 µM.

As for `CO/C(N)=C(\C#N)N=Cc1cccs1`, the TGI in the test on RXF 393 renal is above 100 µM; with HCT-15 colon, above 100 µM; with SK-MEL-28 melanoma, above 100 µM; with SK-OV-3 ovarian it was above 100 µM; with MALME-3M melanoma, above 100 µM; with MDA-MB-435, 73.3 µM. Moreover, the TGI in the test on OVCAR-3 ovarian, in the test on 786-0 renal, with CCRF-CEM leukemia and in the test on BT-549 breast was above 100 µM throughout.

As to `FC(F)(Sc1nc2ccccc2[nH]1)c1nc2ccccc2o1`, the TGI with RXF 393 renal, in the test with HCT-15 colon, with SK-MEL-28 melanoma, in the test with SK-OV-3 ovarian, in the test on MALME-3M melanoma and with MDA-MB-435 was above 100 µM in each case. In addition, the TGI in the test on OVCAR-3 ovarian, in the test on 786-0 renal, in the test with CCRF-CEM leukemia and with BT-549 breast was above 100 µM in each case.

In the case of `COc1ccc2c(C=O)c3n(c(=O)c2c1OC)CCc1cc2c(cc1-3)OCO2`, the TGI with RXF 393 renal is 11.3 µM; with HCT-15 colon, above 100 µM; in the test with SK-MEL-28 melanoma, above 100 µM; in the test on SK-OV-3 ovarian, above 100 µM; with MALME-3M melanoma, above 100 µM; in the test with MDA-MB-435, above 100 µM. The TGI with OVCAR-3 ovarian, in the test on 786-0 renal, in the test with CCRF-CEM leukemia and with BT-549 breast was above 100 µM each time.

Regarding `CC(=O)Oc1c(OC(C)C)cc(=O)n2ccsc12`, the TGI is above 100 µM in the test on RXF 393 renal; above 100 µM in the test with HCT-15 colon; above 100 µM with SK-MEL-28 melanoma; above 100 µM in the test with SK-OV-3 ovarian; above 100 µM in the test with MALME-3M melanoma; 31 µM in the test on MDA-MB-435. In addition, the TGI was above 100 µM in the test with OVCAR-3 ovarian, above 100 µM in the test on 786-0 renal, 70.4 µM in the test with CCRF-CEM leukemia and above 100 µM in the test on BT-549 breast.

On to `COc1cc(COC(=O)NC(Cc2cccs2)C(=O)O)c([N+](=O)[O-])cc1OC` (stereo not given), for which the TGI in the test with RXF 393 renal, with HCT-15 colon, in the test with SK-MEL-28 melanoma, in the test with SK-OV-3 ovarian, in the test on MALME-3M melanoma and in the test with MDA-MB-435 was above 100 µM each time. Also, the TGI in the test with OVCAR-3 ovarian, with 786-0 renal, with CCRF-CEM leukemia and with BT-549 breast was above 100 µM each time.

Turning to `CCOP(=O)(OCC)/C(C#N)=C(\C)c1ccco1`, the TGI in the test on RXF 393 renal, in the test with HCT-15 colon, in the test on SK-MEL-28 melanoma, with SK-OV-3 ovarian, with MALME-3M melanoma and with MDA-MB-435 was above 10 µM in each case. Also, the TGI with OVCAR-3 ovarian, in the test on 786-0 renal, with CCRF-CEM leukemia and with BT-549 breast was above 10 µM each time.

Take `COc1c(-c2nc3nc(N4CCN(C)CC4)ccc3[nH]2)cc(OC)c2c1nc(CCl)n2C`: the TGI was determined as 33.8 µM in the test on RXF 393 renal; 90.6 µM with HCT-15 colon; 71.7 µM in the test on SK-MEL-28 melanoma; 76.6 µM with SK-OV-3 ovarian; 37.5 µM in the test with MALME-3M melanoma; 38.2 µM with MDA-MB-435. Also, the TGI in the test on OVCAR-3 ovarian is 81.5 µM; in the test with 786-0 renal, above 100 µM; in the test with CCRF-CEM leukemia, 62.1 µM; in the test with BT-549 breast, 40.4 µM.

For `CCN(CC)CCCNc1nnc(C)c2[nH]c3ccccc3c12`, the TGI in the test on RXF 393 renal is 38.8 µM; with HCT-15 colon it was above 100 µM; in the test on SK-MEL-28 melanoma it was 40.6 µM; in the test on SK-OV-3 ovarian, 46.8 µM; in the test on MALME-3M melanoma it was 29.3 µM; in the test with MDA-MB-435, 25.9 µM. Moreover, the TGI in the test on OVCAR-3 ovarian came to 37.7 µM; in the test with 786-0 renal, 94 µM; in the test on CCRF-CEM leukemia, 63.9 µM; in the test on BT-549 breast, 68 µM.

Turning to `O=P1(C(O)c2ccccc2)N(Cc2ccccc2)[C@@H]2CCCC[C@H]2N1Cc1ccccc1` (stereo not given in full), the TGI was above 100 µM in the test with RXF 393 renal; above 100 µM in the test on HCT-15 colon; above 100 µM in the test on SK-MEL-28 melanoma; above 100 µM in the test with SK-OV-3 ovarian; 73.1 µM with MALME-3M melanoma; 71 µM in the test with MDA-MB-435. Moreover, the TGI in the test with OVCAR-3 ovarian was 91.3 µM; with 786-0 renal it was 47.9 µM; in the test on CCRF-CEM leukemia it was above 100 µM; in the test with BT-549 breast it was above 100 µM.

Consider `COc1cc(CC2C(=O)OCC2Cc2ccc(OC)c(OC)c2)ccc1O` (stereo not given), for which the TGI in the test on RXF 393 renal, in the test on HCT-15 colon, in the test with SK-MEL-28 melanoma, in the test with SK-OV-3 ovarian, with MALME-3M melanoma and in the test with MDA-MB-435 was above 100 µM each time. The TGI with OVCAR-3 ovarian, with 786-0 renal, in the test on CCRF-CEM leukemia and in the test on BT-549 breast was above 100 µM each time.

Take `CC(=O)CC(=O)N1CCOC1=O`: the TGI in the test on RXF 393 renal, in the test with HCT-15 colon, with SK-MEL-28 melanoma, in the test on SK-OV-3 ovarian, in the test with MALME-3M melanoma and with MDA-MB-435 was above 10 µM throughout. Also, the TGI in the test on OVCAR-3 ovarian, in the test on 786-0 renal, with CCRF-CEM leukemia and with BT-549 breast was above 10 µM in each case.

Take `Nc1nc(N)c2ncn(Cc3ccccc3)c2n1`: the TGI in the test on RXF 393 renal, with HCT-15 colon, in the test with SK-MEL-28 melanoma, with SK-OV-3 ovarian, with MALME-3M melanoma and in the test with MDA-MB-435 was above 100 µM throughout. The TGI with OVCAR-3 ovarian, with 786-0 renal, in the test with CCRF-CEM leukemia and with BT-549 breast was above 100 µM in each case.
